The data set addresses T1, MDR1 (P-glycoprotein) (Homo sapiens, UniProt P08183).
T1 construct: host or cells: MDCK (MDR1-MDCK; wild-type MDCK as comparator)
Put plainly: MDR1-MDCK permeability and efflux assay (Papp, efflux ratio, effective efflux ratio). Format: in vitro ADME. To be noted: dog; for Papp A→B at 1 h, 10 μM: pH 7.4, read-out: Papp AB MDR1. As for the experimental part: The MDR1-MDCK effective efflux assay was performed as described in the BioFocus Standard Operating Procedure, ADME-SOP-56. Both wild-type (WT) and MDR1-MDCK cells (Solvo Biotechnology) were seeded onto 24-well Transwell plates at 2.35×10^5 cells per well and used in confluent monolayers after a 3 day culture at 37° C. under 5% CO2. For both cell types, test and control compounds (propranolol, vinblastine) were added (10 μM, 0.1% DMSO final, n=2) to donor compartments of the Transwell plate assembly in assay buffer (Hanks balanced salt solution supplemented with 25 mM HEPES, adjusted to pH 7.4) for both apical to basolateral (A>B) and basolateral to apical (B>A) measurements. Incubations were performed at 37° C., with samples removed from both donor and acceptor chambers at T=0 and 1 hour and compound analysed by mass spectrometry (LC-MS/MS) including an analytical internal standard.
Apparent permeability (Papp) values were determined from the relationship: Papp=[CompoundAcceptor T=end]×V Acceptor/([Compound Donor T=0]×V Donor)/incubation time×V Donor/Area×60×10^−6 cm/s
In this equation, V is the volume of each Transwell compartment (apical 125 μL, basolateral 600 μL), and concentrations are the relative MS responses for compound (normalized to internal standard) in the donor chamber before incubation and acceptor chamber at the end of the incubation, and Area is the area of cells exposed for drug transfer (0.33 cm^2).
Efflux ratios (Papp B>A/Papp A>B) were calculated for each compound from the mean Papp values in each direction for both wild-type and MDR1-MDCK cells.
In order to confirm the involvement of MDR1 in any efflux seen, an “effective efflux ratio” (EER) was calculated by comparing compound efflux ratios (ER) in the two cell types by the following equation: EER=ER(MDR1-MDCK)/ER(wild-type MDCK)
This ratio illustrates the effect of the over-expressed MDR1 normalised for the background movement of compound through the wild-type cells.
Lucifer Yellow (LY) was added to the apical buffer in all wells to assess viability of the cell layer. […] Recoveries<50% indicates compound solubility, stability or binding issues, thereby reducing the reliability of a result.
The inherent ability of a potential drug molecule to penetrate the blood brain barrier and avoid efflux by transporters expressed in the brain, can be roughly correlated with the Papp(A-B) and the efflux ratio (as defined above), respectively. A potential drug molecule with an apparent permeability<7 (10^−6 cm/sec) has low permeability (+), >7 (10^−6 cm/sec) but <10 (10^−6 cm/sec) has moderate permeability (++), >10 (10^−6 cm/sec) but <20 (10^−6 cm/sec) has good permeability (+++), and >20 (10^−6 cm/sec) is highly permeable (++++). High permeability in the WT and MDCK II cell permeability assay increases the probability of blood brain barrier penetration and access to the CNS. A potential drug molecule in the above assay system with an efflux ratio or effective efflux ratio of <1 has low probability of being an efflux substrate (++++), >1 but <2 has moderate probability of being an efflux substrate (+++), >2 but <3 has has an increased probability of being an efflux substrate (++), and >3 has a high probability of being an efflux substrate (+). If a potential drug molecule is an efflux substrate, the molecule will have a low probability of reaching exposures in the brain (site of action) that will result in efficacious levels of receptor occupancy.

[1] abbreviates: MDCK-MDR1, pH 7.4, ER(MDR1-MDCK)/ER(wild-type MDCK), read-out: EER (Effective Efflux Ratio).
Setting [2] is: MDCK-MDR1, pH 7.4, Papp B>A/Papp A>B, MDR1-MDCK cells, read-out: ER MDR1 (Efflux Ratio).

Where two headings read alike, the source gives them in different places.

30 compounds from patent US12152038B2, “Vasopressin receptor antagonists and products and methods related thereto” (Neumora Therapeutics, Inc., priority 2017, dated 2024) can be followed below.

T1 sequence (P08183 whole entry): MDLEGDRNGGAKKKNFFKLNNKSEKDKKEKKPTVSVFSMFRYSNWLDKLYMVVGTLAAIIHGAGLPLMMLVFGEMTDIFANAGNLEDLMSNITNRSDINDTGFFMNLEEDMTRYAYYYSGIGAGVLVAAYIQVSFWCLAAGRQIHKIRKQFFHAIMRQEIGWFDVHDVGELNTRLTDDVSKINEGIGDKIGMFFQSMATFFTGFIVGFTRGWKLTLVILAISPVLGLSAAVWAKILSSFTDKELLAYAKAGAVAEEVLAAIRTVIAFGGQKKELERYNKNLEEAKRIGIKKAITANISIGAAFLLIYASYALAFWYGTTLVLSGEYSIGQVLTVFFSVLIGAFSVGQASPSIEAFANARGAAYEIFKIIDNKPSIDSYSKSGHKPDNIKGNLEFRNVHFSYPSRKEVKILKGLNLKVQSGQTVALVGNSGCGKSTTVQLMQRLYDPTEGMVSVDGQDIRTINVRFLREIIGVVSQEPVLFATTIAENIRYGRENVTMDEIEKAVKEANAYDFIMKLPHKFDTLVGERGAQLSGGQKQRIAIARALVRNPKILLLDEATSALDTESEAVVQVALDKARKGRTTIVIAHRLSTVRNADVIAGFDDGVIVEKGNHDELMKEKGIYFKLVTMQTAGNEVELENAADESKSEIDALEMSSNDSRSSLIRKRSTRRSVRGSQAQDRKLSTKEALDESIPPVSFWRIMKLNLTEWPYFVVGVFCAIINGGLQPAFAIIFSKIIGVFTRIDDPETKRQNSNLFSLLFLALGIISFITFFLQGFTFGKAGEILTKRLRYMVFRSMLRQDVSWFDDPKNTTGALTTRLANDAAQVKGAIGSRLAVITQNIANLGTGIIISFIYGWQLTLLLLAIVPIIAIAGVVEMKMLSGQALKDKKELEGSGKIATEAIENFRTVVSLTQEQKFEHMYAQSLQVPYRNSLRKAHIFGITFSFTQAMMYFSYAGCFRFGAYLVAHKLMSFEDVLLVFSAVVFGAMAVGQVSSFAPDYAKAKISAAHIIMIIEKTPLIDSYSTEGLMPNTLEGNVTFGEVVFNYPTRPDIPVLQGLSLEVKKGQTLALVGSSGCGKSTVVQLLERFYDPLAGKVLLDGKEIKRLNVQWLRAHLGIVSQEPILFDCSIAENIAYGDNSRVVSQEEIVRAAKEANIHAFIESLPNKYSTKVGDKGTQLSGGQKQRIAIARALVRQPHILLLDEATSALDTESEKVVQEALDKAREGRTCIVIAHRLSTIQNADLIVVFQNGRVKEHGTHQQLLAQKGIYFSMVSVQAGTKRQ

`CC1COc2cc(F)ccc2N1C(=O)N1CC2(C1)CN(c1noc3ccccc13)C2` (single isomer, unassigned) [4-3-B]: the efflux ratio at 1 h, 10 μM was less than 1 under setting [1] and less than 1 under setting [2]. For the same compound, for the setting “MDR1-MDCK cells”, the Papp A→B at 1 h, 10 μM was more than 20 ×10⁻⁶ cm/s.
For the compound `CC1COc2cc(Cl)ccc2N1C(=O)N1CC2(C1)CN(c1cccnn1)C2` (single isomer, unassigned) [9-1-B], the efflux ratio at 1 h, 10 μM by setting is: under setting [1], 2 to 3; under setting [2], more than 3. Besides, the Papp A→B at 1 h, 10 μM (MDR1-MDCK cells) is more than 20 ×10⁻⁶ cm/s.
On the same counts, the results for `O=C(N1CC2(C1)CN(c1ccc(F)cn1)C2)N1CCC(O)c2cc(Cl)ccc21` (single isomer, unassigned) [13-1-A] are more than 3, more than 3 and more than 20 ×10⁻⁶ cm/s.
On the same counts, the results for `O=C(N1CC2(C1)CN(c1ccccn1)C2)N1CCC(O)c2cc(Cl)ccc21` (single isomer, unassigned) [13-2-B] are more than 3, more than 3 and more than 20 ×10⁻⁶ cm/s.
Turning to `CC1COc2cc(Cl)ccc2N1C(=O)N1CC2(C1)CN(c1noc3cccnc13)C2` (single isomer, unassigned) [18-3-B], the efflux ratio at 1 h, 10 μM is less than 1 under setting [1] and less than 1 under setting [2]. Also, the Papp A→B at 1 h, 10 μM (MDR1-MDCK cells) was more than 20 ×10⁻⁶ cm/s.
For the compound `CC1COc2cc(F)c(F)cc2N1C(=O)N1CC2(C1)CN(c1ncccn1)C2` (single isomer, unassigned) [19-1-B], the efflux ratio at 1 h, 10 μM under setting [1] was less than 1 and the efflux ratio at 1 h, 10 μM under setting [2] is 1 to 2. Under “MDR1-MDCK cells”, the Papp A→B at 1 h, 10 μM was more than 20 ×10⁻⁶ cm/s.
Take `CC1COc2cc(Cl)c(F)cc2N1C(=O)N1CC2(C1)CN(c1ncccn1)C2` (single isomer, unassigned) [19-2-B]: the efflux ratio at 1 h, 10 μM reads like this: under setting [1], less than 1; under setting [2], 1 to 2. Moreover, the Papp A→B at 1 h, 10 μM (MDR1-MDCK cells) was more than 20 ×10⁻⁶ cm/s.
In the case of `CC1COc2cc(Cl)c(F)cc2N1C(=O)N1CC2(C1)CN(c1cccnn1)C2` (single isomer, unassigned) [19-4-A], the efflux ratio at 1 h, 10 μM under setting [1] lay in the range of 2 to 3 and the efflux ratio at 1 h, 10 μM under setting [2] fell in the range of 2 to 3. Besides, the Papp A→B at 1 h, 10 μM (MDR1-MDCK cells) was more than 20 ×10⁻⁶ cm/s.
On to `Cc1cncc(N2CC3(CN(C(=O)N4c5ccc(F)cc5OCC4C)C3)C2)n1` (single isomer, unassigned) [20-2-A], for which the efflux ratio at 1 h, 10 μM is 1 to 2 under setting [1] and 1 to 2 under setting [2]. The Papp A→B at 1 h, 10 μM (MDR1-MDCK cells) was more than 20 ×10⁻⁶ cm/s.
For `CC1COc2cc(F)ccc2N1C(=O)N1CC2(C1)CN(c1cc(C#N)ccn1)C2` (single isomer, unassigned) [20-3-B], the efflux ratio at 1 h, 10 μM under setting [1] is 1 to 2 and the efflux ratio at 1 h, 10 μM under setting [2] is 1 to 2. Moreover, where the note is “MDR1-MDCK cells”, the Papp A→B at 1 h, 10 μM is more than 20 ×10⁻⁶ cm/s.
For the compound `Cc1ccnc(N2CC3(CN(C(=O)N4c5ccc(F)cc5OCC4C)C3)C2)c1` (single isomer, unassigned) [20-4-B], the efflux ratio at 1 h, 10 μM reads like this: under setting [1], 1 to 2; under setting [2], less than 1. Further, the Papp A→B at 1 h, 10 μM (MDR1-MDCK cells) is more than 20 ×10⁻⁶ cm/s.
`COc1ccnc(N2CC3(CN(C(=O)N4c5ccc(Cl)cc5OCC4C)C3)C2)c1` (single isomer, unassigned) [20-8-B]: the efflux ratio at 1 h, 10 μM reads like this: under setting [1], less than 1; under setting [2], less than 1. Also, the Papp A→B at 1 h, 10 μM (MDR1-MDCK cells) is more than 20 ×10⁻⁶ cm/s.
Consider `COc1ccnc(N2CC3(CN(C(=O)N4c5ccc(Cl)cc5OCC4C)C3)C2)n1` (single isomer, unassigned) [20-9-B], for which the efflux ratio at 1 h, 10 μM was 1 to 2 under setting [1] and 1 to 2 under setting [2]. Besides, the Papp A→B at 1 h, 10 μM (MDR1-MDCK cells) was more than 20 ×10⁻⁶ cm/s.
Take `Cc1nccnc1N1CC2(CN(C(=O)N3c4ccc(Cl)cc4OCC3C)C2)C1` (single isomer, unassigned) [20-10-A]: the efflux ratio at 1 h, 10 μM under setting [1] is 1 to 2 and the efflux ratio at 1 h, 10 μM under setting [2] lay within 1 to 2. The Papp A→B at 1 h, 10 μM (MDR1-MDCK cells) was more than 20 ×10⁻⁶ cm/s.
For the compound `Cc1ccnc(N2CC3(CN(C(=O)N4c5ccc(Cl)cc5OCC4C)C3)C2)n1` (single isomer, unassigned) [20-12-B], the efflux ratio at 1 h, 10 μM by setting is: under setting [1], 1 to 2; under setting [2], 1 to 2. Under “MDR1-MDCK cells”, the Papp A→B at 1 h, 10 μM is more than 20 ×10⁻⁶ cm/s.
In the case of `CC1COc2cc(F)ccc2N1C(=O)N1CC2(C1)CN(c1noc3ccccc13)C2` (stereo not drawn) [4-3], the efflux ratio at 1 h, 10 μM reads like this: under setting [1], less than 1; under setting [2], less than 1. The Papp A→B at 1 h, 10 μM (MDR1-MDCK cells) was more than 20 ×10⁻⁶ cm/s.
Consider `O=C(N1CC2(C1)CN(c1ccccn1)C2)N1CCOc2cc(Cl)ccc21` [8-2], for which the efflux ratio at 1 h, 10 μM under setting [1] was 1 to 2 and the efflux ratio at 1 h, 10 μM under setting [2] is less than 1. Further, the Papp A→B at 1 h, 10 μM (MDR1-MDCK cells) was more than 20 ×10⁻⁶ cm/s.
In the case of `O=C(N1CC2(C1)CN(c1cnccn1)C2)N1CCOc2cc(Cl)ccc21` [8-3], the efflux ratio at 1 h, 10 μM by setting is: under setting [1], 1 to 2; under setting [2], 1 to 2. The Papp A→B at 1 h, 10 μM (MDR1-MDCK cells) is more than 20 ×10⁻⁶ cm/s.
Regarding `O=C(N1CC2(C1)CN(c1ccc(F)cn1)C2)N1CCOCc2cc(Cl)ccc21` [8-4], the efflux ratio at 1 h, 10 μM reads like this: under setting [1], 1 to 2; under setting [2], 1 to 2. The Papp A→B at 1 h, 10 μM (MDR1-MDCK cells) is more than 20 ×10⁻⁶ cm/s.
Consider `O=C(N1CC2(C1)CN(c1ccc(F)cn1)C2)N1CCc2cc(Cl)ccc21` [8-11], for which the efflux ratio at 1 h, 10 μM under setting [1] was less than 1 and the efflux ratio at 1 h, 10 μM under setting [2] was less than 1. Moreover, for the setting “MDR1-MDCK cells”, the Papp A→B at 1 h, 10 μM is more than 20 ×10⁻⁶ cm/s.
As to `O=C(N1CC2(C1)CN(c1ccccn1)C2)N1CCOCc2cc(Cl)ccc21` [8-12], the efflux ratio at 1 h, 10 μM runs as follows: under setting [1], 2 to 3; under setting [2], 2 to 3. For the same compound, the Papp A→B at 1 h, 10 μM (MDR1-MDCK cells) is more than 20 ×10⁻⁶ cm/s.
For `O=C(N1CC2(C1)CN(c1cnccn1)C2)N1CCc2cc(Cl)ccc21` [8-14], the efflux ratio at 1 h, 10 μM by setting is: under setting [1], less than 1; under setting [2], 1 to 2. Also, the Papp A→B at 1 h, 10 μM (MDR1-MDCK cells) is more than 20 ×10⁻⁶ cm/s.
As for `O=C(N1CC2(C1)CN(c1ccc(F)cn1)C2)N1CCOc2cc(Cl)ccc21` [9-7], the efflux ratio at 1 h, 10 μM is 1 to 2 under setting [1] and less than 1 under setting [2]. Further, the Papp A→B at 1 h, 10 μM (MDR1-MDCK cells) is more than 20 ×10⁻⁶ cm/s.
Take `O=C(N1CC2(C1)CN(c1ccc(F)cn1)C2)N1CCC(O)c2cc(Cl)ccc21` (stereo not drawn) [13-1, (6-chloro-4-hydroxy-3,4-dihydroquinolin-1(2H)-yl)(6-(5-fluoropyridin-2-yl)-2,6-diazaspiro[3.3]heptan-2-yl)methanone]: the efflux ratio at 1 h, 10 μM by setting is: under setting [1], more than 3; under setting [2], more than 3. Also, the Papp A→B at 1 h, 10 μM (MDR1-MDCK cells) is more than 20 ×10⁻⁶ cm/s.
As to `O=C(N1CC2(C1)CN(c1ccc(F)cn1)C2)N1CCC(F)(F)c2cc(Cl)ccc21` [17-1, (6-chloro-4,4-difluoro-3,4-dihydroquinolin-1(2H)-yl)(6-(5-fluoropyridin-2-yl)-2,6-diazaspiro[3.3]heptan-2-yl)methanone], the efflux ratio at 1 h, 10 μM was 1 to 2 under setting [1] and less than 1 under setting [2]. Also, for the setting “MDR1-MDCK cells”, the Papp A→B at 1 h, 10 μM was more than 20 ×10⁻⁶ cm/s.
On the same counts, the results for `CC1COc2cc(Cl)ccc2N1C(=O)N1CC2(C1)CN(c1noc3cccnc13)C2` (stereo not drawn) [18-3] are less than 1, less than 1 and more than 20 ×10⁻⁶ cm/s.
Turning to `CC1COc2cc(Cl)c(F)cc2N1C(=O)N1CC2(C1)CN(c1cccnn1)C2` (stereo not drawn) [19-4], the efflux ratio at 1 h, 10 μM runs as follows: under setting [1], less than 1; under setting [2], less than 1. The Papp A→B at 1 h, 10 μM (MDR1-MDCK cells) was more than 20 ×10⁻⁶ cm/s.
As to `CC1COc2cc(F)c(F)cc2N1C(=O)N1CC2(C1)CN(c1ccc(F)cn1)C2` (stereo not drawn) [19-5], the efflux ratio at 1 h, 10 μM was 1 to 2 under setting [1] and 1 to 2 under setting [2]. For the same compound, the Papp A→B at 1 h, 10 μM (MDR1-MDCK cells) was more than 20 ×10⁻⁶ cm/s.
For `Cc1cncc(N2CC3(CN(C(=O)N4c5ccc(F)cc5OCC4C)C3)C2)n1` (stereo not drawn) [20-2], the efflux ratio at 1 h, 10 μM runs as follows: under setting [1], 1 to 2; under setting [2], 1 to 2. The Papp A→B at 1 h, 10 μM (MDR1-MDCK cells) is more than 20 ×10⁻⁶ cm/s.
In the case of `COc1ccnc(N2CC3(CN(C(=O)N4c5ccc(Cl)cc5OCC4C)C3)C2)c1` (stereo not drawn) [20-8], the efflux ratio at 1 h, 10 μM by setting is: under setting [1], less than 1; under setting [2], less than 1. Besides, the Papp A→B at 1 h, 10 μM (MDR1-MDCK cells) is more than 20 ×10⁻⁶ cm/s.
